Read-outs that look alike come from different tables or passages of the source.
Assays:
[1] = test system: S. cerevisiae; test: in vitro; conditions: Saccharomyces cerevisiae
Text: (§1) These tests included an IL-12 mouse model test to determine compound efficacy, verification of MIC50 for CP, cytotoxicity test for fibroblasts and yeast to determine potential toxic effects, a Human ether-a-go-go-related gene (hERG) test to determine potential cardiotoxicity, an AMES test tp determine mutagenic potential, a Safety Screen 44 test to determine common negative off-target drug interastion (Eurofins Cerep, SA, France), a cytochrome P450 (CYP) test to determine potential liver toxicity, a maximum tolerated dose, test, a Pharmacokinetics (PK) test to determine fate of the substance administered to a living organism tests for plasma stability in human and mouse, to measure the degradation of compound in plasma MClint and HClint test to determine in vitro intrinsic clearance for Mouse and Human, and kinetic solubility and plasma protein binding tests in mouse and human.

[2] = test system: human fibroblast; test: in vitro
Text: as §1

Structure (SMILES)	concentrations at which not toxic, S. cerevisiae cytotoxicity testing [1] [µM]	concentrations at which not toxic, human fibroblast cytotoxicity testing ([2]; human) [µM]	concentrations at which not toxic, human fibroblast cytotoxicity testing [2] [µM]
CONC(=O)C(C)c1ccc(Oc2nc3ccc(Cl)cc3s2)cc1 (stereo not drawn) [NZ-313, 2-{4-[(6-chloro-1,3-benzothiazol-2-yl)oxy]phenyl}-N-methoxypropanamide]	≥ 100	≥ 100	–
COC(=O)C(C)(C)Oc1ccc(Oc2cnc3cc(Cl)ccc3n2)cc1 [NZ-314, methyl 2-{4-[(6-chloroquinoxalin-2-yl)oxy]phenoxy}-2-methylpropanoate]	≥ 100	≥ 100	–
CC(C)(Oc1ccc(Oc2cnc3cc(Cl)ccc3n2)cc1)C(=O)O [NZ-315, 2-{4-[(6-chloroquinoxalin-2-yl)oxy]phenoxy}-2-methylpropanoic acid]	≥ 100	–	≥ 100
CONC(=O)C(C)(C)Oc1ccc(Oc2cnc3cc(Cl)ccc3n2)cc1 [NZ-316, 2-{4-[(6-chloroquinoxalin-2-yl)oxy]phenoxy}-N-methoxy-2-methylpropanamide]	≥ 100	≥ 100	–
COC(=O)C(C)(C)Oc1ccc(Oc2nc3ccc(Cl)cc3s2)cc1 [NZ-317, methyl 2-{4-[(6-chloro-1,3-benzothiazol-2-yl)oxy]phenoxy}-2-methylpropanoate]	≥ 100	≥ 100	–
CC(C)(Oc1ccc(Oc2nc3ccc(Cl)cc3s2)cc1)C(=O)O [NZ-318, 2-{4-[(6-chloro-1,3-benzothiazol-2-yl)oxy]phenoxy}-2-methylpropanoic acid]	≥ 100	–	≥ 100
CONC(=O)C(C)(C)Oc1ccc(Oc2nc3ccc(Cl)cc3s2)cc1 [NZ-319, 2-{4-[(6-chloro-1,3-benzothiazol-2-yl)oxy]phenoxy}-N-methoxy-2-methylpropanamide]	≥ 100	≥ 100	–
CONC(=O)c1cc2ccc(Oc3ccccc3)cc2oc1=O [NZ-320, N-methoxy-2-oxo-7-phenoxy-2H-chromene-3-carboxamide]	≥ 100	≥ 100	–
CC(C)(C)OC(=O)Nc1ccc(Oc2cnc3cc(Cl)ccc3n2)cc1 [NZ-321, tert-butyl N-{4-[(6-chloroquinoxalin-2-yl)oxy]phenyl}carbamate]	≥ 100	≥ 100	–
O=C(COc1ccc(Oc2cnc3cc(Cl)ccc3n2)cc1)NOCC1CC1 [NZ-323, 2-{4-[(6-chloroquinoxalin-2-yl)oxy]phenoxy}-N-(cyclopropylmethoxy)acetamide]	≥ 100	–	≥ 100
CC(C)ONC(=O)COc1ccc(Oc2cnc3cc(Cl)ccc3n2)cc1 [NZ-326, 2-{4-[(6-chloroquinoxalin-2-yl)oxy]phenoxy}-N-(propan-2-yloxy)acetamide]	≥ 100	–	≥ 100
COC(=O)C(C)c1ccc(Oc2nc3ccc(F)cc3s2)cc1 (stereo not drawn) [NZ-328, methyl 2-{4-[(6-fluoro-1,3-benzothiazol-2-yl)oxy]phenyl}propanoate]	≥ 100	≥ 100	–
CC(C(=O)O)c1ccc(Oc2nc3ccc(F)cc3s2)cc1 (stereo not drawn) [NZ-329, 2-{4-[(6-fluoro-1,3-benzothiazol-2-yl)oxy]phenyl}propanoic acid]	≥ 100	≥ 100	–
CONC(=O)C(C)c1ccc(Oc2nc3ccc(F)cc3s2)cc1 (stereo not drawn) [NZ-330, 2-{4-[(6-fluoro-1,3-benzothiazol-2-yl)oxy]phenyl}-N-methoxypropanamide]	≥ 100	≥ 100	–
COc1ccc2nc(Oc3ccc(C(C)C(=O)O)cc3)sc2c1 (stereo not drawn) [NZ-334]	≥ 100	≥ 100	–
CONC(=O)C(C)c1ccc(Oc2nc3ccc(OC)cc3s2)cc1 (stereo not drawn) [NZ-335, N-methoxy-2-{4-[(6-methoxy-1,3-benzothiazol-2-yl)oxy]phenyl}propanamide]	≥ 100	≥ 100	–
COC(=O)C(O)c1ccc(Oc2nc3ccc(Cl)cc3s2)cc1 (stereo not drawn) [NZ-336, methyl 2-{4-[(6-chloro-1,3-benzothiazol-2-yl)oxy]phenyl}-2-hydroxyacetate]	50 to 100	50 to 100	–

Structure (SMILES)	concentrations at which not toxic, S. cerevisiae cytotoxicity testing [1] [µM]	concentrations at which not toxic, human fibroblast cytotoxicity testing ([2]; human) [µM]	concentrations at which not toxic, human fibroblast cytotoxicity testing [2] [µM]
O=C(O)C(O)c1ccc(Oc2nc3ccc(Cl)cc3s2)cc1 (stereo not drawn) [NZ-337, 2-{4-[(6-chloro-1,3-benzothiazol-2-yl)oxy]phenyl}-2-hydroxyacetic acid]	≥ 100	≥ 100	–
COc1ccc2nc(Oc3ccc(NC(=O)NC(C)C)cc3)sc2c1 [NZ-361, 1-{4-[(6-methoxy-1,3-benzathiazol-2-yl)oxy]phenyl}-3-(propan-2-yl)urea]	≥ 100	≥ 100	–
CC(C)NC(=O)Nc1ccc(Oc2nc3ccc(O)cc3s2)cc1 [NZ-362, 1-{4-[(6-hydroxy-1,3-benzothiazol-2-yl)oxy]phenyl}-3-(propan-2-yl)urea]	≥ 100	≥ 100	–
CC(C)NC(=O)Nc1ccc(Oc2nc3cc(F)ccc3s2)cc1 [NZ-373, 1-{4-[(5-fluoro-1,3-benzothiazol-2-yl)oxy]phenyl}-3-(propan-2-yl)urea]	≥ 100	–	≥ 100
CC(C)NC(=O)Nc1ccc(Oc2nc3c(F)cccc3s2)cc1 [NZ-374, 1-{4-[(4-fluoro-1,3-benzothiazol-2-yl)oxy]phenyl}-3-(propan-2-yl)urea]	≥ 100	≥ 100	–
CC(C)NC(=O)Nc1ccc(Oc2nc3cc(Cl)ccc3s2)cc1 [NZ-376, 1-{4-[(5-chloro-1,3-benzothiazol-2-yl)oxy]phenyl}-3-(propan-2-yl)urea]	≥ 100	–	≥ 100
CC(C)NC(=O)Nc1ccc(Oc2nc3ccc(C#N)cc3s2)cc1 [NZ-377, 1-{4-[(6-cyano-1,3-benzothiazol-2-yl)oxy]phenyl}-3-(propan-2-yl)urea]	≥ 100	–	≥ 100
CCOC(=O)c1ccc2nc(Oc3ccc(NC(=O)NC(C)C)cc3)sc2c1 [NZ-378, ethyl 2-(4-{[(propan-2-yl)carbamoyl]amino}phenoxy)-1,3-benzothiazole-6-carboxylate]	≥ 100	≥ 100	–
CC(C)NC(=O)Nc1ccc(Oc2nc3ccc(C(F)(F)F)cc3s2)cc1 [NZ-379, 3-(propan-2-yl)-1-(4-{[6-(trifluoromethyl)-1,3-benzothiazol-2-yl]oxy}phenyl)urea]	≥ 100	≥ 100	–
CC(C)NC(=O)Nc1ccc(Oc2nc3ccc(S(C)(=O)=O)cc3s2)cc1 [NZ-380, 1-{4-[(6-methanesulfonyl-1,3-benzothiazol-2-yl)oxy]phenyl}-3-(propan-2-yl)urea]	≥ 100	≥ 100	–
CC(C)NC(=O)Nc1ccc(Oc2nc3ccc(CO)cc3s2)cc1 [NZ-381, 1-(4-{[6-(hydroxymethyl)-1,3-benzothiazol-2-yl]oxy}phenyl)-3-(propan-2-yl)urea]	≥ 100	≥ 100	–
CC(C)NC(=O)Nc1ccc(Oc2nc3cc(F)c(F)cc3s2)cc1 [NZ-382, 1-{4-[(5,6-difluoro-1,3-benzothiazol-2-yl)oxy]phenyl}-3-(propan-2-yl)urea]	50 to 100	≥ 100	–
CNC(=O)Cc1ccc(Oc2nc3ccc(Cl)cc3s2)cc1 [NZ-383]	≥ 100	–	≥ 100
CNC(=O)Cc1ccc(Oc2nc3ccc(F)cc3s2)cc1 [NZ-385, 2-{4-[(6-fluoro-1,3-benzothiazol-2-yl)oxy]phenyl}-N-methylacetamide]	≥ 100	–	≥ 100
CC(C)NC(=O)N(C)c1ccc(Oc2nc3ccc(Cl)cc3s2)cc1 [NZ-388, 1-{4-[(6-chloro-1,3-benzothiazol-2-yl)oxy]phenyl}-1-methyl-3-(propan-2-yl)urea]	≥ 100	–	≥ 100
CNC(=O)Cc1ccc(O)cc1Oc1nc2ccc(Cl)cc2s1 [NZ-390, 2-{2-[(6-chloro-1,3-benzothiazol-2-yl)oxy]-4-hydroxyphenyl}-N-methylacetamide]	≥ 100	≥ 100	–
